{"source": "paper PMC4429288", "about": "(The Journal of antibiotics, 2014)", "key": {"[1]": {"test_system": "S. aureus (MRSA, VISA and VRSA strains)", "assay": "MBC, plating from MIC wells", "format": "cell-based, Staphylococcus aureus"}, "[2]": {"test_system": "S. aureus (MRSA, VISA and VRSA strains)", "assay": "MIC, broth microdilution", "format": "cell-based, Staphylococcus aureus"}, "[3]": {"test_system": "MRSA NRS123 (USA400)", "assay": "Time-kill analysis"}, "[4]": {"test_system": "methicillin-resistant Staphylococcus aureus (MRSA)", "assay": "Single-step resistance selection", "format": "cell-based", "conditions": "4 × MIC; for Single-step frequency of resistance: resistant colonies per inoculum"}, "[5]": {"test_system": "S. epidermidis ATCC 35984", "assay": "MIC, broth microdilution", "format": "cell-based", "conditions": "Staphylococcus epidermidis, ATCC35984"}, "[6]": {"conditions": "Staphylococcus aureus, ATCC43300|MRSA|VISA|VRSA"}, "[7]": {"conditions": "Staphylococcus aureus, MRSA|NRS107|VISA|VRSA"}, "[8]": {"conditions": "Staphylococcus aureus, MRSA|NRS119|VISA|VRSA"}, "[9]": {"conditions": "Staphylococcus aureus, MRSA|NRS123|USA400|VISA|VRSA"}, "[10]": {"conditions": "Staphylococcus aureus, MRSA|NRS194|VISA|VRSA"}, "[11]": {"conditions": "Staphylococcus aureus, MRSA|NRS384|USA300|VISA|VRSA"}, "[12]": {"conditions": "Staphylococcus aureus, MRSA|NRS385|USA500|VISA|VRSA"}}, "note": "Structures can show the parent of a compound that is named as a salt."}
{"compound": "teicoplanin", "values": [{"measurement": "MBC", "setting": "[1]; MRSA ATCC 43300", "result": 3.76, "unit": "µg/mL"}, {"measurement": "MBC", "setting": "[1]; MRSA NRS107", "result": 0.94, "unit": "µg/mL"}, {"measurement": "MBC", "setting": "[1]; MRSA NRS119", "result": 0.94, "unit": "µg/mL"}, {"measurement": "MBC", "setting": "[1]; MRSA NRS123 (USA400)", "result": 15.04, "unit": "µg/mL"}, {"measurement": "MBC", "setting": "[1]; MRSA NRS194", "result": 15.04, "unit": "µg/mL"}, {"measurement": "MBC", "setting": "[1]; MRSA NRS384 (USA300)", "result": 15.04, "unit": "µg/mL"}, {"measurement": "MBC", "setting": "[1]; MRSA NRS385 (USA500)", "result": 3.76, "unit": "µg/mL"}, {"measurement": "MBC", "setting": "[1]; VISA NRS1", "result": 7.52, "unit": "µg/mL"}, {"measurement": "MBC", "setting": "[1]; VISA NRS19", "result": 0.94, "unit": "µg/mL"}, {"measurement": "MBC", "setting": "[1]; VISA NRS37", "result": 7.52, "unit": "µg/mL"}, {"measurement": "MBC", "setting": "[1]; VRSA VRS1", "result": 240.60, "unit": "µg/mL"}, {"measurement": "MBC", "setting": "[1]; VRSA VRS4", "result": 60.15, "unit": "µg/mL"}, {"measurement": "MBC", "setting": "[1]; VRSA VRS5", "result": 60.15, "unit": "µg/mL"}, {"measurement": "MBC relative to MIC", "setting": "[1]; three strains of MRSA (NRS194, USA300, and USA400)", "result": 16, "unit": "fold"}, {"measurement": "MBC relative to MIC", "setting": "[1]; two additional MRSA strains", "result": "four"}, {"measurement": "MIC", "setting": "[2]; MRSA ATCC 43300", "result": 0.94, "unit": "µg/mL"}, {"measurement": "MIC", "setting": "[2]; MRSA NRS107", "result": 0.94, "unit": "µg/mL"}, {"measurement": "MIC", "setting": "[2]; MRSA NRS119", "result": 0.94, "unit": "µg/mL"}, {"measurement": "MIC", "setting": "[2]; MRSA NRS123 (USA400)", "result": 0.94, "unit": "µg/mL"}, {"measurement": "MIC", "setting": "[2]; MRSA NRS194", "result": 0.94, "unit": "µg/mL"}, {"measurement": "MIC", "setting": "[2]; MRSA NRS384 (USA300)", "result": 0.94, "unit": "µg/mL"}, {"measurement": "MIC", "setting": "[2]; MRSA NRS385 (USA500)", "result": 0.94, "unit": "µg/mL"}, {"measurement": "MIC", "setting": "[2]; VISA NRS1", "result": 3.76, "unit": "µg/mL"}, {"measurement": "MIC", "setting": "[2]; VISA NRS19", "result": 0.94, "unit": "µg/mL"}, {"measurement": "MIC", "setting": "[2]; VISA NRS37", "result": 7.52, "unit": "µg/mL"}, {"measurement": "MIC range", "setting": "[2]; VISA strains", "result": "0.94 to 7.52", "unit": "µg/mL"}, {"measurement": "MIC", "setting": "[2]; VRSA VRS1", "result": 120.30, "unit": "µg/mL"}, {"measurement": "MIC", "setting": "[2]; VRSA VRS4", "result": 60.15, "unit": "µg/mL"}, {"measurement": "MIC", "setting": "[2]; VRSA VRS5", "result": 60.15, "unit": "µg/mL"}, {"measurement": "MIC range", "setting": "[2]; all three VRSA strains", "result": "60.51 to 120.30", "unit": "µg/mL"}, {"measurement": "Time to complete elimination of MRSA", "setting": "[3]; 2 × MIC", "result": 24, "unit": "h"}, {"measurement": "Time to complete elimination of MRSA", "setting": "[3]; 4 × MIC", "result": 24, "unit": "h"}, {"measurement": "Time to complete elimination of MRSA", "setting": "[3]; 8 × MIC", "result": 24, "unit": "h"}, {"measurement": "Single-step frequency of resistance", "setting": "[4]; MRSA NRS107", "result": "1.91×10^−8"}, {"measurement": "Single-step frequency of resistance", "setting": "[4]; MRSA NRS119", "result": "2.73×10^−7"}, {"measurement": "Single-step frequency of resistance", "setting": "[4]; MRSA NRS123 (USA400)", "result": "2.21×10^−9"}, {"measurement": "Single-step frequency of resistance", "setting": "[4]; MRSA NRS384 (USA300)", "result": "3.03×10^−9"}, {"measurement": "Single-step frequency of resistance", "setting": "[4]; MRSA NRS385 (USA500)", "result": "1.79×10^−8"}, {"measurement": "Mutation frequency range", "setting": "[4]; five MRSA strains", "result": "2.73×10^−7 to 3.03×10^−9"}]}
{"compound": "CN[C@H](CC(C)C)C(=O)N[C@H]1C(=O)N[C@@H](CC(N)=O)C(=O)N[C@H]2C(=O)N[C@H]3C(=O)N[C@H](C(=O)N[C@H](C(=O)O)c4cc(O)cc(O)c4-c4cc3ccc4O)[C@H](O)c3ccc(c(Cl)c3)Oc3cc2cc(c3O[C@@H]2O[C@H](CO)[C@@H](O)[C@H](O)[C@H]2O[C@H]2C[C@](C)(N)[C@H](O)[C@H](C)O2)Oc2ccc(cc2Cl)[C@H]1O", "note": "[Vancomycin, vancomycin hydrochloride]", "values": [{"measurement": "MBC", "setting": "[1]; [6]", "result": 0.74, "unit": "µg/mL"}, {"measurement": "MBC", "setting": "[1]; Staphylococcus aureus, MRSA|NRS1|VISA|VRSA", "result": 2.97, "unit": "µg/mL"}, {"measurement": "MBC", "setting": "[1]; Staphylococcus aureus, MRSA|NRS19|VISA|VRSA", "result": 2.97, "unit": "µg/mL"}, {"measurement": "MBC", "setting": "[1]; Staphylococcus aureus, MRSA|NRS37|VISA|VRSA", "result": 2.97, "unit": "µg/mL"}, {"measurement": "MBC", "setting": "[1]; [7]", "result": 1.49, "unit": "µg/mL"}, {"measurement": "MBC", "setting": "[1]; [8]", "result": 1.49, "unit": "µg/mL"}, {"measurement": "MBC", "setting": "[1]; [9]", "result": 0.37, "unit": "µg/mL"}, {"measurement": "MBC", "setting": "[1]; [10]", "result": 0.74, "unit": "µg/mL"}, {"measurement": "MBC", "setting": "[1]; [11]", "result": 0.74, "unit": "µg/mL"}, {"measurement": "MBC", "setting": "[1]; [12]", "result": 0.74, "unit": "µg/mL"}, {"measurement": "MIC", "setting": "[5]", "result": 0.74, "unit": "µg/mL"}, {"measurement": "MIC", "setting": "[2]; [6]", "result": 0.74, "unit": "µg/mL"}, {"measurement": "MIC", "setting": "[2]; [7]", "result": 0.74, "unit": "µg/mL"}, {"measurement": "MIC", "setting": "[2]; [8]", "result": 0.74, "unit": "µg/mL"}, {"measurement": "MIC", "setting": "[2]; [9]", "result": 0.37, "unit": "µg/mL"}, {"measurement": "MIC", "setting": "[2]; [10]", "result": 0.74, "unit": "µg/mL"}, {"measurement": "MIC", "setting": "[2]; [11]", "result": 0.74, "unit": "µg/mL"}, {"measurement": "MIC", "setting": "[2]; [12]", "result": 0.74, "unit": "µg/mL"}, {"measurement": "Time to 3-log10 reduction in CFUml^−1", "setting": "[3]; 2 × MIC", "result": "≤ 24", "unit": "h"}, {"measurement": "Time to complete elimination of MRSA", "setting": "[3]; 2 × MIC", "result": "not able to eliminate all bacteria completely"}, {"measurement": "Time to complete elimination of MRSA", "setting": "[3]; 4 × MIC", "result": 24, "unit": "h"}, {"measurement": "Time to complete elimination of MRSA", "setting": "[3]; 8 × MIC", "result": 24, "unit": "h"}, {"measurement": "Single-step frequency of resistance", "setting": "[4]; MRSA NRS119", "result": ">8.47×10^−10"}, {"measurement": "Single-step frequency of resistance", "setting": "[4]; MRSA NRS123 (USA400)", "result": ">2.33×10^−10"}, {"measurement": "Single-step frequency of resistance", "setting": "[4]; MRSA NRS384 (USA300)", "result": "3.03×10^−10"}, {"measurement": "Single-step frequency of resistance", "setting": "[4]; MRSA NRS385 (USA500)", "result": ">3.31×10^−10"}]}
